Numbered stars: 1 amine (or outer) side, 2 acyl side, 3 side chain; on linkers, the order of the positions; unused ones are H or OH. Square brackets hold non-standard residues; d marks the D form. Peptide text beside a SMILES is read from it. * marks the point of attachment. 5FAM = O=C1OC2(c3ccc(O)cc3Oc3cc(O)ccc32)c2ccc(C(=O)*)cc21; NHCH2C6H4(4-CH2CONH2) = NC(=O)Cc1ccc(CN*)cc1; X1 = O=C(Cc1ccc(CN[*:1])cc1)[*:2]
target: TNFα (Homo sapiens, UniProt P01375); assay: MST binding affinity of resynthesized NNP hits to TNFα; parameters: purchased R&D Systems, Inc. 210-TA/CF; conditions: read-out: KD (nM) [95% conf. int], NNP2 library hit, target TNFα, one-site binding model
Description: Hit binding affinity to various targets were determined using Microscale Thermophoresis (MST). MST experiments were performed on a Monolith NT.115pico (NanoTemper Technologies GmbH, Munich, Germany). Measurements were performed at room temperature, in triplicate with incubation periods of 15, 30 and 45 minutes. […] Targets were labeled using Nanotemper Monolith 2nd Generation Protein Labeling Kits. RED-MALEIMIDE (Maleimide-647-dye) labeling kit was used for K-Ras and RED-NHS (NHS-647-dye) labeling kit was used for IL-6, IL-6R, TNFα and ASGPR. The buffer for the ASGPR contained 20 mM HEPES pH 7.4, 150 mM NaCl, 10 mM MgCl2, 2 mM CaCl2, 0.05% Pluronic F-127, and 1 mM DTT; for IL-6 contained 20 mM HEPES pH 7.4, 150 mM KCl, 10 mM MgCl2, and 0.1% Pluronic F-127; for the soluble IL-6 receptor 20 mM HEPES pH 7.4, 150 mM NaCl, 10 mM MgCl2, and 0.05% Tween-20; for K-Ras 20 mM HEPES pH 7.4, 150 mM NaCl, 10 mM MgCl2, 0.05% Tween-20 and 1 mM DTT; for TNFα 10 mM HEPES pH 7.4, 150 mM NaCl, 10 mM MgCl2, 0.05% Polysorbate-20. Triplicate data was analyzed using MO.AffinityAnalysis software (NanoTemper Technologies GmbH).

Sequence of TNFα (P01375 77-233 limits assumed): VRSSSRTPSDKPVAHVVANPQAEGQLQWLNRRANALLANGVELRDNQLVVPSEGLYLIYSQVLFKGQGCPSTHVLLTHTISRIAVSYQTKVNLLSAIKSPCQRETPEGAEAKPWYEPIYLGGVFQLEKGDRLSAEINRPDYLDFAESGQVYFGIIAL

| Structure (SMILES) | Kd |
| --- | --- |
| CC(C)C[C@H](NC(=O)[C@@H](CCC(=O)O)NC(=O)[C@H]1CCCN1C(=O)Cc1ccc(CNC(=O)[C@H](CC(C)C)NC(=O)[C@@H](CCCCN)NC(=O)[C@@H](Cc2ccccc2)NC(=O)Cc2ccc(CNC(=O)[C@@H](NC(=O)[C@@H](CCC(=O)O)NC(=O)[C@@H](Cc3ccccc3)NC(=O)Cc3ccc(CNC(=O)[C@H](CC(C)C)NC(=O)[C@@H](CCCNC(=N)N)NC(=O)[C@@H](CC(C)C)NC(=O)Cc4ccc(CNC(=O)[C@H](Cc5ccccc5)NC(=O)[C@@H](CC(C)C)NC(=O)[C@H](NC(=O)c5ccc6c(c5)C(=O)OC65c6ccc(O)cc6Oc6cc(O)ccc65)[C@H](C)O)cc4)cc3)C(C)C)cc2)cc1)C(=O)NCc1ccc(CC(=O)N2CCC[C@@H]2C(=O)N[C@H](CCC(=O)O)C(=O)N[C@@H](Cc2ccccc2)C(=O)NCc2ccc(CC(=O)N[C@H](Cc3c[nH]cn3)C(=O)N[C@H](CCC(=O)O)C(=O)N[C@@H](CC(C)C)C(=O)NCc3ccc(CC(=O)N4CCC[C@@H]4C(=O)N[C@H](CCCNC(=N)N)C(=O)N[C@@H](C)C(=O)NCc4ccc(CC(=O)N[C@H](Cc5c[nH]cn5)C(=O)N[C@H](Cc5ccc(O)cc5)C(=O)N[C@H](C(=O)NCc5ccc(CC(N)=O)cc5)C(C)C)cc4)cc3)cc2)cc1 [TNF-39-4] (5FAM-[dT][dL]F[X1][dL][dR]L[X1][dF][dE]V[X1][dF][dK]L[X1][dP][dE]L[X1][dP][dE]F[X1][dH][dE]L[X1][dP][dR]A[X1][dH][dY]V-{NHCH2C6H4(4-CH2CONH2)}) | 28 nM |
| CC(C)C[C@H](NC(=O)[C@@H](CCCNC(=N)N)NC(=O)[C@@H](CC(C)C)NC(=O)Cc1ccc(CNC(=O)[C@H](CC(C)C)NC(=O)[C@H](NC(=O)[C@@H](CCCCN)NC(=O)c2ccc3c(c2)C(=O)OC32c3ccc(O)cc3Oc3cc(O)ccc32)C(C)C)cc1)C(=O)NCc1ccc(CC(=O)N[C@H](Cc2ccccc2)C(=O)N[C@H](CCC(=O)O)C(=O)N[C@H](C(=O)NCc2ccc(CC(=O)N[C@H](Cc3ccccc3)C(=O)N[C@H](CCCNC(=N)N)C(=O)N[C@@H](C)C(=O)NCc3ccc(CC(=O)N[C@H](Cc4ccc(O)cc4)C(=O)N[C@H](CCCCN)C(=O)N[C@@H](C)C(=O)NCc4ccc(CC(=O)N[C@H](CCC(=O)O)C(=O)N[C@H](CO)C(=O)N[C@H](C(=O)NCc5ccc(CC(=O)N6CCC[C@@H]6C(=O)N[C@@H](C(=O)NCC(=O)NCc6ccc(CC(=O)N7CCC[C@@H]7C(=O)N[C@H](CCCNC(=N)N)C(=O)N[C@@H](C)C(=O)NCc7ccc(CC(=O)N[C@H](Cc8ccccc8)C(=O)N[C@H](CCCCN)C(=O)NCC(=O)NCc8ccc(CC(N)=O)cc8)cc7)cc6)C(C)C)cc5)C(C)C)cc4)cc3)cc2)C(C)C)cc1 [TNF-39-5] (5FAM-[dK][dV]L[X1][dL][dR]L[X1][dF][dE]V[X1][dF][dR]A[X1][dY][dK]A[X1][dE][dS]V[X1][dP][dV]G[X1][dP][dR]A[X1][dF][dK]G-{NHCH2C6H4(4-CH2CONH2)}) | 23 nM |
| CC(C)C[C@H](NC(=O)[C@@H](CCCNC(=N)N)NC(=O)[C@@H](CC(C)C)NC(=O)Cc1ccc(CNC(=O)[C@H](CC(C)C)NC(=O)[C@@H](CC(C)C)NC(=O)[C@@H](Cc2ccc(O)cc2)NC(=O)c2ccc3c(c2)C(=O)OC32c3ccc(O)cc3Oc3cc(O)ccc32)cc1)C(=O)NCc1ccc(CC(=O)N[C@H](Cc2ccccc2)C(=O)N[C@H](CCC(=O)O)C(=O)N[C@H](C(=O)NCc2ccc(CC(=O)N3CCC[C@@H]3C(=O)N[C@H](CCCNC(=N)N)C(=O)N[C@H](C(=O)NCc3ccc(CC(=O)N[C@H](Cc4c[nH]c5ccccc45)C(=O)N[C@H](CCCNC(=N)N)C(=O)N[C@H](C(=O)NCc4ccc(CC(=O)N[C@H](CCCNC(=N)N)C(=O)N[C@H](Cc5ccc(O)cc5)C(=O)N[C@@H](CC(C)C)C(=O)NCc5ccc(CC(=O)N[C@H](CCC(=O)O)C(=O)N[C@@H](C(=O)N[C@H](C(=O)NCc6ccc(CC(=O)N[C@@H](C(=O)N[C@H](Cc7c[nH]cn7)C(=O)N[C@@H](CC(C)C)C(=O)NCc7ccc(CC(=O)N[C@H](Cc8ccc(O)cc8)C(=O)N[C@H](CCCNC(=N)N)C(=O)N[C@@H](Cc8ccccc8)C(=O)NCc8ccc(CC(N)=O)cc8)cc7)[C@H](C)O)cc6)C(C)C)C(C)C)cc5)cc4)C(C)C)cc3)C(C)C)cc2)C(C)C)cc1 [TNF-39-6] (5FAM-[dY][dL]L[X1][dL][dR]L[X1][dF][dE]V[X1][dP][dR]V[X1][dW][dR]V[X1][dR][dY]L[X1][dE][dV]V[X1][dT][dH]L[X1][dY][dR]F-{NHCH2C6H4(4-CH2CONH2)}) | 93 nM |
| CC(C)C[C@H](NC(=O)[C@@H](CCCCN)NC(=O)[C@@H](Cc1ccccc1)NC(=O)Cc1ccc(CNC(=O)[C@H](CC(C)C)NC(=O)[C@H](NC(=O)[C@@H](CCCNC(=N)N)NC(=O)Cc2ccc(CNC(=O)[C@H](CC(C)C)NC(=O)[C@@H](CCCNC(=N)N)NC(=O)[C@@H](CC(C)C)NC(=O)Cc3ccc(CNC(=O)[C@H](CC(C)C)NC(=O)[C@H](NC(=O)[C@@H](CCCCN)NC(=O)c4ccc5c(c4)C(=O)OC54c5ccc(O)cc5Oc5cc(O)ccc54)C(C)C)cc3)cc2)C(C)C)cc1)C(=O)NCc1ccc(CC(=O)N[C@H](C)C(=O)N[C@H](CCCCN)C(=O)N[C@@H](Cc2ccccc2)C(=O)NCc2ccc(CC(=O)N[C@H](Cc3ccccc3)C(=O)N[C@@H](C(=O)N[C@@H](C)C(=O)NCc3ccc(CC(=O)N4CCC[C@@H]4C(=O)NCC(=O)N[C@H](C(=O)NCc4ccc(CC(=O)N[C@H](CCCCN)C(=O)N[C@H](Cc5ccccc5)C(=O)N[C@@H](Cc5ccccc5)C(=O)NCc5ccc(CC(=O)N[C@H](C)C(=O)N[C@@H](C(=O)N[C@@H](CC(C)C)C(=O)NCc6ccc(CC(N)=O)cc6)C(C)C)cc5)cc4)C(C)C)cc3)[C@H](C)O)cc2)cc1 [TNF-39-7] (5FAM-[dK][dV]L[X1][dL][dR]L[X1][dR][dV]L[X1][dF][dK]L[X1][dA][dK]F[X1][dF][dT]A[X1][dP]GV[X1][dK][dF]F[X1][dA][dV]L-{NHCH2C6H4(4-CH2CONH2)}) | 53 nM |
| CC(C)C[C@H](NC(=O)[C@@H](CCCNC(=N)N)NC(=O)[C@@H](Cc1c[nH]c2ccccc12)NC(=O)Cc1ccc(CNC(=O)[C@@H](NC(=O)[C@@H](CCC(=O)O)NC(=O)[C@@H](Cc2ccccc2)NC(=O)Cc2ccc(CNC(=O)[C@H](C)NC(=O)[C@@H](Cc3c[nH]cn3)NC(=O)[C@@H](Cc3c[nH]c4ccccc34)NC(=O)Cc3ccc(CNC(=O)[C@H](CC(C)C)NC(=O)[C@H](NC(=O)[C@@H](CCCCN)NC(=O)c4ccc5c(c4)C(=O)OC54c5ccc(O)cc5Oc5cc(O)ccc54)C(C)C)cc3)cc2)C(C)C)cc1)C(=O)NCc1ccc(CC(=O)N[C@H](Cc2ccc(O)cc2)C(=O)N[C@H](CCCCN)C(=O)N[C@@H](C)C(=O)NCc2ccc(CC(=O)N[C@H](CC(N)=O)C(=O)N[C@H](CCCNC(=N)N)C(=O)N[C@@H](Cc3ccccc3)C(=O)NCc3ccc(CC(=O)N4CCC[C@@H]4C(=O)N[C@@H](C(=O)NCC(=O)NCc4ccc(CC(=O)N5CCC[C@@H]5C(=O)N[C@H](CCCNC(=N)N)C(=O)N[C@@H](C)C(=O)NCc5ccc(CC(=O)N[C@H](C)C(=O)N[C@H](CCCCN)C(=O)NCC(=O)NCc6ccc(CC(N)=O)cc6)cc5)cc4)C(C)C)cc3)cc2)cc1 [TNF-39-8] (5FAM-[dK][dV]L[X1][dW][dH]A[X1][dF][dE]V[X1][dW][dR]L[X1][dY][dK]A[X1][dN][dR]F[X1][dP][dV]G[X1][dP][dR]A[X1][dA][dK]G-{NHCH2C6H4(4-CH2CONH2)}) | 270 nM |
| CC(C)C[C@H](NC(=O)[C@@H](CCCNC(=N)N)NC(=O)CNC(=O)Cc1ccc(CNC(=O)[C@H](CC(C)C)NC(=O)[C@H](NC(=O)[C@@H](CCCCN)NC(=O)c2ccc3c(c2)C(=O)OC32c3ccc(O)cc3Oc3cc(O)ccc32)C(C)C)cc1)C(=O)NCc1ccc(CC(=O)N[C@H](CCCNC(=N)N)C(=O)N[C@@H](C(=O)N[C@@H](CC(C)C)C(=O)NCc2ccc(CC(=O)N[C@H](Cc3c[nH]c4ccccc34)C(=O)N[C@H](CCCNC(=N)N)C(=O)N[C@@H](CC(C)C)C(=O)NCc3ccc(CC(=O)N[C@H](Cc4c[nH]c5ccccc45)C(=O)N[C@H](CCCNC(=N)N)C(=O)N[C@H](C(=O)NCc4ccc(CC(=O)N[C@H](CO)C(=O)N[C@H](CO)C(=O)N[C@@H](Cc5ccccc5)C(=O)NCc5ccc(CC(=O)N[C@H](C)C(=O)N[C@H](CO)C(=O)N[C@@H](Cc6ccccc6)C(=O)NCc6ccc(CC(=O)N[C@H](Cc7c[nH]c8ccccc78)C(=O)N[C@H](CCCCN)C(=O)N[C@@H](CC(C)C)C(=O)NCc7ccc(CC(=O)N[C@H](Cc8ccc(O)cc8)C(=O)N[C@H](CCCNC(=N)N)C(=O)N[C@@H](Cc8ccccc8)C(=O)NCc8ccc(CC(N)=O)cc8)cc7)cc6)cc5)cc4)C(C)C)cc3)cc2)C(C)C)cc1 [TNF-39-9] (5FAM-[dK][dV]L[X1]G[dR]L[X1][dR][dV]L[X1][dW][dR]L[X1][dW][dR]V[X1][dS][dS]F[X1][dA][dS]F[X1][dW][dK]L[X1][dY][dR]F-{NHCH2C6H4(4-CH2CONH2)}) | 150 nM |
